From patent US12377153B2, “Poly(beta-thioester) polymers and polymeric nanoparticles” (MASSACHUSETTS INSTITUTE OF TECHNOLOGY, priority 2019, dated 2025) come the findings set out here.

The subject of this assay is dendritic cells in the draining lymph nodes. Nature of the assay: Dendritic cell phenotype in draining lymph nodes after subcutaneous vaccination. Type of assay: in vivo, C57BL/6J mice. As to conditions: antigen alone as compared to vehicle-treated animals. As to the method:
The activity of the polymeric adjuvant B18 was assessed in C57BL/6J mice. Vaccines were prepared by admixing a model peptide antigen (SIINFEKL) with B18 nanoparticles and injected subcutaneously into mice. Following three injections placed three days apart, animals were sacrificed and dendritic cell phenotype in the draining lymph nodes were analyzed using flow cytometry.

Take SIINFEKL: the dendritic cell activation result is “no appreciable dendritic cell activation”.
